The text below walks through data of US20040084383A1, “Method to inhibit growth of microorganisms in aqueous systems and on substrates using a persulfate and a bromide” (BUCKMAN LABORATORIES INTERNATIONAL, INC., priority 2002, published 2004).

This test relates to Pseudomonas aeruginosa. The test can be described thus: Antimicrobial efficacy in inoculated pulp slurry (24 hr incubation, plated in nutrient agar, cfu/ml counted). In kind it is cell-based. As to the method:
A concentrated solution of active biocidal composition was prepared by mixing 44% (w/v) of aqueous ammonium persulfate with 40% (w/v) aqueous sodium bromide in equal volume. The final mixture contains 22% ammonium persulfate and 20% NaBr at pH 2.2. The molar ratio of the components was 1:2 for (NH4)2S2O8:NaBr. Four hours after mixing, the concentrated solution was diluted with water to contain 5% ammonium persulfate. This diluted solution (5%) was then added to 50 ml pulp slurry to give a biocidal concentration of 10 ppm (as ammonium persulfate) in pulp slurry. The pulp slurry was then inoculated with 3×10^6 cells/ml of Pseudomonas aeruginosa, incubated at room temperature for 24 hr, plated in nutrient agar. The colony forming units per milliliter (cfu/ml) was counted and compared with each individual component acting alone.
The pulp slurry contains white bleached dry pulp at 5 g/L; cationic starch at 10 bl/ton dry pulp; CaCO3 at 300 bl/ton dry pulp; ASA size at 3-4 lb/ton dry pulp; retention aids at 0.5-1.0 bl/ton dry pulp; defoamer at 250 g/ton dry pulp. The pulp slurry has a consistency of about 0.5 to 0.7%. The final pH of the pulp substrate after autoclave is about 8.0. […] Neither component acting alone provides significant antimicrobial efficacy.
The antimicrobial efficacy of the mixture containing 22% (w/v) aqueous ammonium persulfate and 20% (w/v) aqueous NaBr was tested at different times after mixing, aging times. The mixture preparation, at pH 2.2, and the test system are the same as that described in Example 1. At each time, a portion of the mixture was taken and diluted to 5% (as ammonium persulfate). The diluted solution was then added to pulp slurry to give a final concentration of 5, 10, 20, and 40 ppm (as ammonium persulfate) in pulp slurry. […] At only 5 ppm level, it achieved 2.5 logs reduction, which represents greater than 99% kill. […] It requires about 4 hr to provide significant activity. At about 8 hr after mixing, the mixed solution reached the maximum activity. The biocidal efficacy of the mixture was maintained or stabilized for at least 7 days.
Three mixtures were generated. Mixture #1 was prepared by mixing 22% (NH4)2S2O8 with 20% NaBr in equal volume. The final concentrations in mixture #1 were 11% (NH4)2S2O8 and 10% NaBr. Mixture #2 was made by mixing 33% (NH4)2S2O8 with 30% NaBr in equal volume. The final concentrations in Mixture #2 were 16.5% (NH4)2S2O8 and 15% NaBr. Mixture #3 was prepared by mixing 44% (NH4)2S2O8 with 40% NaBr in equal volume. In the final solution, Mixture #3 contains 22% (NH4)2S2O8 and 20% NaBr. All three mixtures, having a pH 2.2, were tested at a dosage of 20 ppm, and at 1, 2, 4, and 8 hr after mixing for their antimicrobial activity in the pulp slurry described in Example 1. […]

Where [1] appears, read: 100 ppm as pure compound in pulp slurry.
Setting [2] is: 1000 ppm as pure compound in pulp slurry.

For `N.N.O=S(=O)(O)OOS(=O)(=O)O` [(NH4)2S2O8, ammonium persulfate], under setting [1], the CFU/ml is 4.5 × 10^5 CFU/ml and the “Log Reduction” value stood at 0.97.

As for `[Br-].[Na+]` [NaBr, sodium bromide], under setting [2], the CFU/ml is listed as 4.2 × 10^6 CFU/ml and the “Log Reduction” value is reported as 0.00.
